Assay [1] addresses T1, Cbl (aa49-434) (Homo sapiens, UniProt P22681).
T1 construct: Cbl (aa49-434, in-house); made in house
T1 sequence (P22681 49-434): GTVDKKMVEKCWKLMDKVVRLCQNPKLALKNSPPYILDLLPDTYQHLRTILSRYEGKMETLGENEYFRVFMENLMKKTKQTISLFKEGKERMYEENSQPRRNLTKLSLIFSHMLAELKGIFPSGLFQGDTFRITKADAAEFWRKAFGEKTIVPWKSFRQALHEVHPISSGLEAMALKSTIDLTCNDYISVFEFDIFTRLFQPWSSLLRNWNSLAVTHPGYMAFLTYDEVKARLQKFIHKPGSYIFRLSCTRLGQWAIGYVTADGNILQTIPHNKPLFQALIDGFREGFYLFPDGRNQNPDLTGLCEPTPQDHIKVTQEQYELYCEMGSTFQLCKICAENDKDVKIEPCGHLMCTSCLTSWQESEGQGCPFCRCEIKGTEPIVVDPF
Nature of the assay: Co-expressed Cbl with BirA biochemical assay (CBL/E2-Ub binding, HTRF). Conditions: 0.6 nM Cbl co-expressed with BirA, read-out: co-express CBL/E2-Ub-binding assay IC50. The text has this: (§1) The assay in the absence of a Cbl-b/Cbl inhibitor, where phosphorylation of Cbl-b/Cbl by the Src kinase allows UbcH5B-Ub to bind to Cbl-b/Cbl and brings the Bodipy-Fluorescein tagged ubiquitin in proximity to the streptavidin-terbium bound to the N-terminal biotinylated Avi-tagged Cbl-b/Cbl. […] The lack of a FRET signal indicates Cbl-b/Cbl is inhibited by the Cbl-b/Cbl inhibitor.

Assay [2] has as its target T2, Cbl-b (aa36-427) (Homo sapiens, UniProt Q13191).
T2 construct: Cbl-b (aa36-427, in-house); made in house
Nature of the assay: Co-expressed Cbl-b with BirA biochemical assay (CBLB/E2-Ub binding, HTRF). The conditions noted are these: 0.6 nM Cbl-b co-expressed with BirA, HTRF; read-out: co-express CBLB/E2-Ub-binding assay IC50.
Excerpt: as §1
A general note: Time-resolved FRET reads energy transfer from a long-lived donor to a nearby acceptor.

T2 sequence (Q13191 36-427): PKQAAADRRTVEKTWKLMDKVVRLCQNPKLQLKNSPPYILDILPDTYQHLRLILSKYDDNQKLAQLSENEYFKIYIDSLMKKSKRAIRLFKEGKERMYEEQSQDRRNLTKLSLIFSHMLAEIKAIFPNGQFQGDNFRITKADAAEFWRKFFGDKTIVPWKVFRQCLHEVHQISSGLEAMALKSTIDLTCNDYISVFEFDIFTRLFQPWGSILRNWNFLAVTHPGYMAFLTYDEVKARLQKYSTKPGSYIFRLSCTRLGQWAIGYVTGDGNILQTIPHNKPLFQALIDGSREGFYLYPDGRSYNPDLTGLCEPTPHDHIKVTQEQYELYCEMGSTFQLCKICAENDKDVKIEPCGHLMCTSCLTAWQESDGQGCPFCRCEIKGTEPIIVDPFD

Turning to `C[C@H](NCc1cc(C(=O)Nc2cccc([C@]3(c4nncn4C)C[C@@H](CC#N)C3)c2)nc2cc[nH]c12)C1CC1` [Compound B28, N-(3-((1s,3R)-3-(cyanomethyl)-1-(4-methyl-4H-1,2,4-triazol-3-yl)cyclobutyl)phenyl)-7-((((S)-1-cyclopropylethyl)amino)methyl)-1H-pyrrolo[3,2-b]pyridine-5-carboxamide], the IC50 in assay [1] stood at 2.2 nM; in assay [2] it was 0.8 nM.

Turning to `Cc1c[nH]c2c(CNC3(C)CC3)cc(C(=O)Nc3cccc([C@]4(c5nncn5C)C[C@@H](CC#N)C4)c3)nc12` [Compound B30, N-(3-((1s, 3s)-3-(cyanomethyl)-1-(4-methyl-4H-1,2,4-triazol-3-yl)cyclobutyl)phenyl)-3-methyl-7-(((1-methylcyclopropyl)amino)methyl)-1H-pyrrolo[3,2-b]pyridine-5-carboxamide], the IC50 in assay [1] was 8.8 nM; in assay [2], 1.4 nM.

In the case of `C[C@H](NCc1cc(C(=O)Nc2cccc([C@]3(c4nncn4C)C[C@@H](C)C3)c2)c2ncc(F)n2c1)C1CCC1` [Compound A65, 6-((((S)-1-cyclobutylethyl)amino)methyl)-3-fluoro-N-(3-((1s,3R)-3-methyl-1-(4-methyl-4H-1,2,4-triazol-3-yl)cyclobutyl)phenyl)imidazo[1,2-a]pyridine-8-carboxamide], the figures for the IC50 in assay [1] and in assay [2] were 2 nM and 0.9 nM, respectively.

As for `Cn1cnnc1[C@]1(c2cncc(NC(=O)c3cc(CNC4(C)CC4)cn4ccnc34)c2)C[C@H](C)C1` [Compound A75, N-(5-((1s, 3s)-3-methyl-1-(4-methyl-4H-1,2,4-triazol-3-yl)cyclobutyl)pyridin-3-yl)-6-(((1-methylcyclopropyl)amino)methyl)imidazo[1,2-a]pyridine-8-carboxamide], the IC50 in assay [1] is 5.5 nM; in assay [2], 1.7 nM.

Regarding `C[C@H](NCc1cc(C(=O)Nc2cccc([C@]3(c4nncn4C)C[C@@H](CC#N)C3)c2)nc2cc[nH]c12)C1CCC1` [Compound B31, N-(3-((1s,3R)-3-(cyanomethyl)-1-(4-methyl-4H-1,2,4-triazol-3-yl)cyclobutyl)phenyl)-7-((((S)-1-cyclobutylethyl)amino)methyl)-1H-pyrrolo[3,2-b]pyridine-5-carboxamide], the IC50 is 0.7 nM in assay [1] and 0.8 nM in assay [2].

In the case of `CC[C@H](C)NCc1cc(C(=O)Nc2cncc([C@]3(c4nncn4C)C[C@@H](C)C3)c2)c2nccn2c1` [Compound A49, 6-((((S)-sec-butyl)amino)methyl)-N-(5-((1s,3R)-3-methyl-1-(4-methyl-4H-1,2,4-triazol-3-yl)cyclobutyl)pyridin-3-yl)imidazo[1,2-a]pyridine-8-carboxamide], the values for the IC50 in assay [1] and in assay [2] were 11.9 nM and 3 nM, respectively.

As for `C[C@H](NCc1cc(C(=O)Nc2cccc([C@]3(c4nncn4C)C[C@@H](CC#N)C3)c2)nc2c1OCC2(C)C)C1CC1` [Compound C26, N-(3-((1s,3R)-3-(cyanomethyl)-1-(4-methyl-4H-1,2,4-triazol-3-yl)cyclobutyl)phenyl)-7-((((S)-1-cyclopropylethyl)amino)methyl)-3,3-dimethyl-2,3-dihydrofuro[3,2-b]pyridine-5-carboxamide], the IC50 in assay [1] amounted to 25 nM; in assay [2], 2.3 nM.

`Cc1cnc2c(C(=O)Nc3cncc([C@]4(c5nncn5C)C[C@@H](C)C4)c3)cc(CN3CC[C@H](F)[C@H](C)C3)cn12` [Compound A55, 6-{[(3R,4S)-4-fluoro-3-methylpiperidin-1-yl]methyl}-3-methyl-N-{5-[(1r, 3s)-3-methyl-1-(4-methyl-1,2,4-triazol-3-yl)cyclobutyl]pyridin-3-yl}imidazo[1,2-a]pyridine-8-carboxamide]: the IC50 was 6.7 nM in assay [1] and 2.9 nM in assay [2].

On to “N-(3-((1s,3R)-3-methyl-1-(4-methyl-4H-1,2,4-triazol-3-yl)cyclobutyl)phenyl)-7′-(((S)-3-methylpiperidin-1-yl)methyl)-1′,2′-dihydrospiro[cyclopropane-1,3′-pyrrolo[3,2-b]pyridine]-5′-carboxamide [Compound C51]”, for which the IC50 in assay [1] came to 4.9 nM; in assay [2], 1.5 nM.

In the case of `Cn1cnnc1[C@]1(c2cccc(NC(=O)c3cc(CNC4(C)CC4)cc4c(F)cnn34)c2)C[C@H](C)C1` [Compound A92, 3-fluoro-N-(3-((1s, 3s)-3-methyl-1-(4-methyl-4H-1,2,4-triazol-3-yl)cyclobutyl)phenyl)-5-(((1-methylcyclopropyl)amino)methyl)pyrazolo[1,5-a]pyridine-7-carboxamide], the IC50 in assay [1] is 2.5 nM; in assay [2] it was 0.4 nM.

Take `C[C@H]1CCCN(Cc2cc(C(=O)Nc3cccc([C@]4(c5nncn5C)C[C@@H](CC#N)C4)c3)n3ncnc3c2)C1` [Compound A14, N-(3-((1s,3R)-3-(cyanomethyl)-1-(4-methyl-4H-1,2,4-triazol-3-yl)cyclobutyl)phenyl)-7-(((S)-3-methylpiperidin-1-yl)methyl)-[1,2,4]triazolo[1,5-a]pyridine-5-carboxamide]: the IC50 in assay [1] was found to be 185 nM; in assay [2] it was 45.3 nM.

For the compound `Cc1cnc2c(C(=O)Nc3cccc([C@]4(c5nncn5C)C[C@@H](C)C4)c3)cc(CN[C@@H](C)C3CC3)cn12` [Compound A59, 6-((((S)-1-cyclopropylethyl)amino)methyl)-3-methyl-N-(3-((1s,3R)-3-methyl-1-(4-methyl-4H-1,2,4-triazol-3-yl)cyclobutyl)phenyl)imidazo[1,2-a]pyridine-8-carboxamide], the IC50 in assay [1] amounted to 5.3 nM; in assay [2] it was 1.7 nM.

For `Cn1cnnc1[C@]1(c2cccc(NC(=O)c3cc(CNCC4CCCC4)cn4ccnc34)c2)C[C@H](CC#N)C1` [Compound A26, N-(3-((1s, 3s)-3-(cyanomethyl)-1-(4-methyl-4H-1,2,4-triazol-3-yl)cyclobutyl)phenyl)-6-(((cyclopentylmethyl)amino)methyl)imidazo[1,2-a]pyridine-8-carboxamide], the IC50 in assay [1] was determined as 6.3 nM; in assay [2], 1.3 nM.

Take `C[C@H]1CCCN(Cc2cc(C(=O)Nc3cccc([C@]4(c5nncn5C)C[C@@H](CC#N)C4)c3)n3nccc3c2)C1` [Compound A11, 5-{[(3S)-3-methylpiperidin-1-yl]methyl}-N-{3-[(1s, 3s)-3-(cyanomethyl)-1-(4-methyl-1,2,4-triazol-3-yl)cyclobutyl]phenyl}pyrazolo[1,5-a]pyridine-7-carboxamide]: the results for the IC50 in assay [1] and in assay [2] were 46.2 nM and 6.6 nM, respectively.

As for `Cn1cnnc1[C@]1(c2cncc(NC(=O)c3cc(CNC4(C)CCC4)cn4c(F)cnc34)c2)C[C@H](C)C1` [Compound A76, 3-fluoro-N-(5-((1s, 3s)-3-methyl-1-(4-methyl-4H-1,2,4-triazol-3-yl)cyclobutyl)pyridin-3-yl)-6-(((1-methylcyclobutyl)amino)methyl)imidazo[1,2-a]pyridine-8-carboxamide], the IC50 in assay [1] was determined as 8.3 nM; in assay [2] it was 2.6 nM.

Regarding `C[C@H](NCc1cc(C(=O)Nc2cccc([C@]3(c4nncn4C)C[C@@H](C)C3)c2)nc2c(F)c[nH]c12)C1CCC1` [Compound B38, 7-((((S)-1-cyclobutylethyl)amino)methyl)-3-fluoro-N-(3-((1s,3R)-3-methyl-1-(4-methyl-4H-1,2,4-triazol-3-yl)cyclobutyl)phenyl)-1H-pyrrolo[3,2-b]pyridine-5-carboxamide], the IC50 was found to be 1.3 nM in assay [1] and 0.5 nM in assay [2].

The values are drawn from patent US20250163047A1, “HETEROCYCLIC COMPOUNDS, COMPOSITIONS THEREOF, AND METHODS OF TREATMENT THEREWITH” (BeiGene, Ltd., priority 2022, published 2025).
